# Assay results: patent EP0979827A1, “Peptides having tachykinin antagonist activity, a process for preparation thereof and pharmaceutical compositions comprising the same” (Boehringer Ingelheim Pharma KG, priority 1992, dated 1994)
# Target: T1, NK1-Rezeptor (Substanz P-Rezeptor) (Homo sapiens, UniProt P25103)
# T1 construct: expressed in transfected cells; host or cells: human lymphoblastoma cells IM-9
# Assay: Receptor affinity for the NK1 receptor: displacement of 125I-labelled substance P on IM-9 cells
# Assay type: binding
# Conditions: humane Lymphoblastoma-Zellen (IM-9) mit klonierten NK1-Rezeptoren; Verdrängung von 125J-markierter Substanz P; read-out: IC50-Werte
# Description: Die Rezeptoraffinität zum NK1-Rezeptor (Substanz P-Rezeptor) wurde an humanen Lymphoblastoma-Zellen (IM-9) mit klonierten NK1-Rezeptoren bestimmt, wobei die Verdrängung von ^125J-markierter Substanz P gemessen wird. Die so erhaltenen IC50-Werte betragen: Verb. A : 60 nM Verb. B : 21 nM Verb. C : 90 nM Verb. D : 45 nM [drawing 26]
# T1 sequence (P25103 whole entry): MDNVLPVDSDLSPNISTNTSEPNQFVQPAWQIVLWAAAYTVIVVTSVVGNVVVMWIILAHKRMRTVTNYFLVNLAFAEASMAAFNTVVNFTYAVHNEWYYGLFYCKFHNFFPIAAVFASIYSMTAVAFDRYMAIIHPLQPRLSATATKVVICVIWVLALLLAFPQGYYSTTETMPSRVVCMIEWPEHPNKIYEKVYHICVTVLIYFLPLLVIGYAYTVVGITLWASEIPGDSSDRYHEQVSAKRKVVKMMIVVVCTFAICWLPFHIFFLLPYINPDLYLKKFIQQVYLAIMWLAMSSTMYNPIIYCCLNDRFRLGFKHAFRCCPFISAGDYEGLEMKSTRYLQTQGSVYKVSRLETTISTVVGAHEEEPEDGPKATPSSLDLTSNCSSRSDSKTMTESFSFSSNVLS
row,IC50 [nM],Compound
1,60,CN(Cc1ccccc1)C(=O)[C@H](Cn1cccc1)NC(=O)[C@@H]1C[C@@H](O)CN1C(=O)c1c[nH]c2ccccc12 [Verb. A]
2,21,CN(Cc1ccccc1)C(=O)[C@H](COCc1ccccc1)NC(=O)[C@@H]1C[C@@H](O)CN1C(=O)c1c[nH]c2ccccc12 [Verb. B]
3,45,CN(Cc1ccccc1)C(=O)[C@H](CC1CCCCC1)NC(=O)[C@@H]1C[C@@H](O)CN1C(=O)c1c[nH]c2ccccc12 [Verb. D]
